The record followed here is ChEMBL document CHEMBL5291721, “A preclinical secondary pharmacology resource illuminates target-adverse drug reaction associations of marketed drugs” (Nat Commun, 2023).

Assay [1] has as its target T1, Corticotropin-releasing factor receptor 1 (Homo sapiens, UniProt P34998).
T1 sequence (P34998 whole entry): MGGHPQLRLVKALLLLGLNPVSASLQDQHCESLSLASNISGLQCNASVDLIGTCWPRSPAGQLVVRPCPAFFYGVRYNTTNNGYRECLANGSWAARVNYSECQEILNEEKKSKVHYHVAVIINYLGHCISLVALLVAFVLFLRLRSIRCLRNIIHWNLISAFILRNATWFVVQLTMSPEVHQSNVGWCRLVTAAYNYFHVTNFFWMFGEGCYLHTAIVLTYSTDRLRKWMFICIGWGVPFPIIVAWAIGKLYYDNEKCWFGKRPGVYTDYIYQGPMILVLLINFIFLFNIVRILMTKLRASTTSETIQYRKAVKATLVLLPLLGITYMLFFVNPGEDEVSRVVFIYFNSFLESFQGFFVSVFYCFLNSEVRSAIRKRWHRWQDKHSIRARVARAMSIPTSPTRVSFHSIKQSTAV

The target in the next assay is T2, D(4) dopamine receptor (Homo sapiens, UniProt P21917).
T2 sequence (P21917 whole entry): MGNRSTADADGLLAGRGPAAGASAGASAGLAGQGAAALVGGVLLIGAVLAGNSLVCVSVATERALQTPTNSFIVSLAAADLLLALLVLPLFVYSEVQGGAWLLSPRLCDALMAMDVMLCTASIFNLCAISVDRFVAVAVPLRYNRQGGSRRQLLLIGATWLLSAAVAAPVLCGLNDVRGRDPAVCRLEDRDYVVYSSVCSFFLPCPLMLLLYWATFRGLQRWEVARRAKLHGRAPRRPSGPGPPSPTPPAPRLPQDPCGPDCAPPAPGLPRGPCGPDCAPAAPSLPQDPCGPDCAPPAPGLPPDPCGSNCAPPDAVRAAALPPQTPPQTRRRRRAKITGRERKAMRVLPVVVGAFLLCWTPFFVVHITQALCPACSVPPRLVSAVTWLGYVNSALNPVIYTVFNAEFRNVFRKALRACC

For assay [2], the target named is T3, Endothelin receptor type B (Homo sapiens, UniProt P24530).
T3 sequence (P24530 whole entry): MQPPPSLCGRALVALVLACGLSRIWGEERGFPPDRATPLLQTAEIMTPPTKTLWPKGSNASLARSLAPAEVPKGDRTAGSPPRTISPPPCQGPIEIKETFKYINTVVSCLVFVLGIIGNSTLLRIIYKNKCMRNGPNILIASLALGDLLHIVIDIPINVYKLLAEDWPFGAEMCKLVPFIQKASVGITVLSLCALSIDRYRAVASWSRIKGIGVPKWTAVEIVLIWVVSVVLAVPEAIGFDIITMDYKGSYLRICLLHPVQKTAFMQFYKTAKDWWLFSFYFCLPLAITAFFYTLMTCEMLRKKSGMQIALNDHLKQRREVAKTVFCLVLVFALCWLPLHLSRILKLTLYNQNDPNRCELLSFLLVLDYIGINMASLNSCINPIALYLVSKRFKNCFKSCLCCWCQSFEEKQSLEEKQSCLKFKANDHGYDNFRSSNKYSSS

Assay [3] addresses Neurotensin receptor type 1 (Homo sapiens, UniProt P30989).
Assay [4] deals with T4, Peroxisome proliferator-activated receptor gamma (Homo sapiens, UniProt P37231).
T4 sequence (P37231 whole entry): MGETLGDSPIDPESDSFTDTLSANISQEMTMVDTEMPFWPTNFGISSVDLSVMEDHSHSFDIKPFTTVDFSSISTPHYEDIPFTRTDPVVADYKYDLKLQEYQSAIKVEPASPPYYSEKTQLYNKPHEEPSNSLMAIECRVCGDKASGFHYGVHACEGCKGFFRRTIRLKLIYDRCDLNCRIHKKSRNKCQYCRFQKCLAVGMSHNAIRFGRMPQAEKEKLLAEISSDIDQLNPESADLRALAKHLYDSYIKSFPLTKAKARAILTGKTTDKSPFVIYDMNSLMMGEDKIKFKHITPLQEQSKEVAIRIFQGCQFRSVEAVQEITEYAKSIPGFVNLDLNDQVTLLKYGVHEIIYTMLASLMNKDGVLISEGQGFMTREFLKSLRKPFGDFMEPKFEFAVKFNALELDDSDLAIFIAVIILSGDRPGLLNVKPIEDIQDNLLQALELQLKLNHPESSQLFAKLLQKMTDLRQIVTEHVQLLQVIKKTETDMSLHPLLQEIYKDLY
In kind it is functional.

Assay [5] addresses T5, Alpha-2A adrenergic receptor (Homo sapiens, UniProt P08913).
T5 sequence (P08913 whole entry): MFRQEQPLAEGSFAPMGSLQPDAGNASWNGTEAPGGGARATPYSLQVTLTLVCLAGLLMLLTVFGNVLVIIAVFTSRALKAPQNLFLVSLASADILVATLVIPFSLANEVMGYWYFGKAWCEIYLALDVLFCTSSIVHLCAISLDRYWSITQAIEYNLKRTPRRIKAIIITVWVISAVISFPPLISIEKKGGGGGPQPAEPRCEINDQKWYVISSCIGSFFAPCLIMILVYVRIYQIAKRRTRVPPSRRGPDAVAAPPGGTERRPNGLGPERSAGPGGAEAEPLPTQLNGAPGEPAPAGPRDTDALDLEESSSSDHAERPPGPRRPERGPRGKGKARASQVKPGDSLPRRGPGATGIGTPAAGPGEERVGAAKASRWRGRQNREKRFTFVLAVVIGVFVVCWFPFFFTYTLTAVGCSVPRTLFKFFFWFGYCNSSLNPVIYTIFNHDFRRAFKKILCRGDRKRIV

For assay [6], the target named is T6, Muscarinic acetylcholine receptor M2 (Homo sapiens, UniProt P08172).
T6 sequence (P08172 whole entry): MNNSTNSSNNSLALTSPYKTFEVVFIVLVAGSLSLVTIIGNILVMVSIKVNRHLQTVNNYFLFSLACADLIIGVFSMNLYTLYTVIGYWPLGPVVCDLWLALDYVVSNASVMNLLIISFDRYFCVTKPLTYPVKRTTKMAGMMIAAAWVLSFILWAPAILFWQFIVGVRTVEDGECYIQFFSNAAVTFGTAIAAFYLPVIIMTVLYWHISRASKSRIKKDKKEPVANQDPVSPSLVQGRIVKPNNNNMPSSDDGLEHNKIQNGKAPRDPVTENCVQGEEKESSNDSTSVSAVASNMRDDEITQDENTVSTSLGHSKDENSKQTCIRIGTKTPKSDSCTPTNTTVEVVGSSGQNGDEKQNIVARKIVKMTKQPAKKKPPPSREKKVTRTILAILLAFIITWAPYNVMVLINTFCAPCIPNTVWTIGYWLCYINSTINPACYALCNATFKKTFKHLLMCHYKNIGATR

Assay [7] deals with Beta-3 adrenergic receptor (Homo sapiens, UniProt P13945).
Sequence of Beta-3 adrenergic receptor (P13945 whole entry): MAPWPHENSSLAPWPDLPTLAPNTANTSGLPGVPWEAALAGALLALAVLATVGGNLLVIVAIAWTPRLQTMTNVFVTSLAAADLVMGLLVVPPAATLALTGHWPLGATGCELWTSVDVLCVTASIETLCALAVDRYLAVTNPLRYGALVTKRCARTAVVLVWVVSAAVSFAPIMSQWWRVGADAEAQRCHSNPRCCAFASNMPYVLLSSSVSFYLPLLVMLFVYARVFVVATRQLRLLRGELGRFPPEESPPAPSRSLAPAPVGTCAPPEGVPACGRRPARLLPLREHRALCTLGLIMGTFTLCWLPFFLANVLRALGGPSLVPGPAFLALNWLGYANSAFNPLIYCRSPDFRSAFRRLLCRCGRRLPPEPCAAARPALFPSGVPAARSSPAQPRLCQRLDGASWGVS

A value given as a limit tells only on which side of the number the result lay.
Note: assay procedure not described here.

Sequence of Neurotensin receptor type 1 (P30989 whole entry): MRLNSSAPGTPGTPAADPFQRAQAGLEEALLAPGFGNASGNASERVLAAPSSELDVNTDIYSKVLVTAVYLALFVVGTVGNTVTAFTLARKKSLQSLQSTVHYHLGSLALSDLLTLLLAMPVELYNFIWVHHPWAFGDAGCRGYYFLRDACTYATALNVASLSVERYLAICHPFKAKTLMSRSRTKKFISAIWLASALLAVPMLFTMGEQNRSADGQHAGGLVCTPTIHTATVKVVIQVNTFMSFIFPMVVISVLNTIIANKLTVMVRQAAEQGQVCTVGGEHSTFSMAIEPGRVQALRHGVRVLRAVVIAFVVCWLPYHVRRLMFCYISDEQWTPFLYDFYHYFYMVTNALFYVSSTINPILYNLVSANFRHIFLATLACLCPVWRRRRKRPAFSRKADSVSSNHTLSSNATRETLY

As to `COc1ccccc1OCCNCC(O)COc1cccc2[nH]c3ccccc3c12` (stereo not drawn) [CARVEDILOL], the AC50 in assay [1] was above 30 µM; on D(4) dopamine receptor, 0.0172 µM; in assay [2] it was above 30 µM; in assay [3] it was above 30 µM; in assay [4], above 30 µM; in assay [5], 0.189 µM. In addition, in assay [6], the AC50 was above 10 µM.

`C=CC[C@@H]1/C=C(\C)C[C@H](C)C[C@H](OC)[C@H]2O[C@@](O)(C(=O)C(=O)N3CCCC[C@H]3C(=O)O[C@H](/C(C)=C/[C@@H]3CC[C@@H](O)[C@H](OC)C3)[C@H](C)[C@@H](O)CC1=O)[C@H](C)C[C@@H]2OC` [TACROLIMUS ANHYDROUS]: the AC50 in assay [7] was 12.2 µM; in assay [1], above 30 µM; at D(4) dopamine receptor it was above 10 µM; in assay [2] it was above 30 µM; in assay [3], above 30 µM; in assay [4], above 30 µM. For the same compound, the AC50 in assay [5] and in assay [6] was above 10 µM in each case.

With `Cc1onc(-c2ccccc2)c1-c1ccc(S(N)(=O)=O)cc1` [VALDECOXIB], the AC50 in assay [7] was above 30 µM; in assay [1] it was above 30 µM; at D(4) dopamine receptor it was above 10 µM; in assay [2] it was above 30 µM; in assay [3], above 30 µM; in assay [4] it was above 30 µM. For the same compound, the AC50 in assay [5] and in assay [6] was above 10 µM each time.
